Reference: ChEMBL document CHEMBL5634150, “Design, synthesis and biological evaluation of novel dihydroquinolin-4(1H)-one derivatives as novel tubulin polymerization inhibitors” (Eur J Med Chem, 2023)
In brackets after ≈: the same amount, converted by molar mass. Activity calls are given as the source filed them. The rule behind the calls is not given here.

Experiments:
[1] = Aqueous solubility of the compound by HPLC analysis; format: physicochemical; details: aqueous (not further specified)
HepG2 = assay: Antiproliferative activity against human HepG2 cells assessed as inhibition of cell growth measured after 72 hrs by MTT assay; format: functional, cell-based; details: HepG2, 72 h
A549 [2] = assay: Antiproliferative activity against human A549 cells assessed as inhibition of cell growth at 0.1 uM measured after 72 hrs by MTT assay relative to control; format: functional
K562 [3] = assay: Induction of apoptosis in human K562 cells assessed as nuclear fragmentation at 1.5 to 6 nM incubated for 24 hrs by Hoechst 33342 staining based fluorescence microscopic analysis; format: functional, cell-based; details: dose 1.5-6 nM
K562 [4] = assay: Induction of cell cycle arrest in human K562 cells assessed as accumulation of cells at S phase at 1.5 nM incubated overnight by PI staining based flow cytometry analysis (reference value: 15.98%); format: functional
K562 [5] = assay: Induction of cell cycle arrest in human K562 cells assessed as accumulation of cells at G2/M phase at 3 nM incubated overnight by PI staining based flow cytometry analysis (reference value: 5.57%); format: functional
HUVEC = assay: Anti-angiogenesis activity in HUVEC cells at 1.5 to 6 nM measured after 24 hrs by wound healing assay; format: functional, cell-based; details: Homo sapiens, dose 1.5-6 nM
[6] = Metabolic stability in mouse liver microsomes assessed as half life at 100 uM measure upto 60 mins in presence of NADPH by LC-MS/MS analysis; format: ADME, Microsome
H22 [7] = assay: Antitumor activity against mouse H22 cells allografted in mouse model assessed as inhibition of tumor weight administered as iv dose for once daily for 3 weeks; format: functional, organism-based; details: dose 10-20 mg/kg
[8] = Metabolic stability in mouse plasma assessed as compound remaining at 1 uM and measured at 3 hrs by LC-MS/MS analysis; format: ADME, cell-free; details: read-out: Stability
A549 [9] = assay: Antiproliferative activity against human A549 cells assessed as inhibition of cell growth at 0.01 uM measured after 72 hrs by MTT assay relative to control; format: functional
K562 [10] = assay: Induction of apoptosis in human K562 cells assessed as downregulation of bcl-2 level at upto 6 nM measured after 48 hrs by Western blot analysis; format: functional, cell-based
K562 [11] = assay: Induction of cell cycle arrest in human K562 cells assessed as accumulation of cells at G1 phase at 6 nM incubated overnight by PI staining based flow cytometry analysis (reference value: 78.45%); format: functional
K562 [12] = assay: Induction of cell cycle arrest in human K562 cells assessed as accumulation of cells at S phase at 3 nM incubated overnight by PI staining based flow cytometry analysis (reference value: 15.98%); format: functional
H22 [13] = assay: Antitumor activity against mouse H22 cells allografted in mouse model assessed as decrease in MVD cells at 20 mg/kg by immunohistochemistry analysis; format: functional, organism-based
A549 [14] = assay: Antiproliferative activity against human A549 cells assessed as inhibition of cell growth measured after 72 hrs by MTT assay; format: functional, cell-based; details: A549, 72 h
K562 [15] = assay: Induction of apoptosis in human K562 cells assessed as chromatin aggregation at 1.5 to 6 nM incubated for 24 hrs by Hoechst 33342 staining based fluorescence microscopic analysis; format: functional, cell-based; details: dose 1.5-6 nM
[16] = Resistance index, ratio of IC50 for antiproliferative activity against human A549/Taxol cells to IC50 for antiproliferative activity against human A549 cells; format: functional
A549 [17] = assay: Antiproliferative activity against human A549 cells assessed as inhibition of cell growth at 1 uM measured after 72 hrs by MTT assay relative to control; format: functional
K562 [18] = assay: Induction of apoptosis in human K562 cells at 1.5 nM measured after 48 hrs by Annexin V-FITC/7-AAD staining based flow cytometric analysis relative to control; format: functional
K562 [19] = assay: Induction of apoptosis in human K562 cells assessed as increase in bax level at upto 6 nM measured after 48 hrs by Western blot analysis; format: functional, cell-based
K562 [20] = assay: Induction of apoptosis in human K562 cells at 6 nM measured after 48 hrs by Annexin V-FITC/7-AAD staining based flow cytometric analysis relative to control; format: functional
H22 [21] = assay: Antitumor activity against mouse H22 cells allografted in mouse model assessed as decrease in Ki67 positive cells at 20 mg/kg by immunohistochemistry analysis; format: functional, organism-based
[22] = Toxicity in mouse assessed as effect on kidney at 20 mg/kg by H and E staining based microscopic analysis; format: organism-based; details: in vivo
Tubulin (Homo sapiens) [23] = molecular target: T1, Tubulin (Homo sapiens) (UniProt P68371+Q9H4B7+P0DPH7+P68366+Q13509+Q71U36+P04350+Q3ZCM7+P07437+P68363+Q9BQE3+Q6PEY2+Q13885+Q9BVA1+Q9BUF5); assay: Inhibition of tubulin polymerization in human K562 cells assessed as microtubule destruction network at 1.5 to 6 uM incubated for 48 hrs by immunofluorescence staining based inverted microscopic analysis; format: cell-based; details: dose 1.5-6 µM
K562 [24] = assay: Antiproliferative activity against human K562 cells assessed as inhibition of cell growth measured after 72 hrs by MTT assay; format: functional, cell-based; details: K562, 72 h
K562 [25] = assay: Induction of cell cycle arrest in human K562 cells assessed as accumulation of cells at G1 phase at 3 nM incubated overnight by PI staining based flow cytometry analysis (reference value: 78.45%); format: functional
K562 [26] = assay: Induction of cell cycle arrest in human K562 cells assessed as accumulation of cells at G2/M phase at 1.5 nM incubated overnight by PI staining based flow cytometry analysis (reference value: 5.57%); format: functional
[27] = Toxicity in mouse assessed as effect on heart at 20 mg/kg by H and E staining based microscopic analysis; format: organism-based; details: in vivo
MDA-MB-231 [28] = assay: Inhibition of cell migration in human MDA-MB-231 cells measured after 48 hrs by crystal violet staining microscopy based transwell migration assay; format: functional; details: dose 1.5-6 nM
[29] = Toxicity in mouse assessed as effect on spleen at 20 mg/kg by H and E staining based microscopic analysis; format: organism-based; details: in vivo
Tubulin (Homo sapiens) [30] = molecular target: T1, Tubulin (Homo sapiens); assay: Inhibition of [3H]colchicine binding to tubulin (unknown origin) at 5 uM incubated for 2 hrs by scintillation counter analysis relative to control; format: protein-complex assay
K562 [31] = assay: Induction of apoptosis in human K562 cells assessed as increase in bad level at upto 6 nM measured after 48 hrs by Western blot analysis; format: functional, cell-based
[32] = Antiproliferative activity against human HFL1 cells assessed as inhibition of cell growth measured after 72 hrs by MTT assay; format: toxicity, cell-based
[33] = Metabolic stability in mouse plasma assessed as half life at 1 uM and measured upto 3 hrs by LC-MS/MS analysis; format: ADME, cell-free
H22 [34] = assay: Antitumor activity against mouse H22 cells allografted in mouse model assessed as inhibition of tumor volume administered as iv dose for once daily for 3 weeks; format: functional, organism-based; details: dose 10-20 mg/kg
Tubulin (Homo sapiens) [35] = molecular target: T1, Tubulin (Homo sapiens); assay: Inhibition of [3H]colchicine binding to tubulin (unknown origin) at 1 uM incubated for 2 hrs by scintillation counter analysis relative to control; format: protein-complex assay
[36] = Toxicity in mouse assessed as effect on lung at 20 mg/kg by H and E staining based microscopic analysis; format: organism-based; details: in vivo
MDA-MB-231 [37] = assay: Inhibition of cell invasion in human MDA-MB-231 cells at 1.5 to 6 nM measured after 48 hrs by crystal violet staining microscopy based transwell assay; format: functional; details: dose 1.5-6 nM

With CCn1ccc2cc(N3CCC(=O)c4c3cc(OC)c(OC)c4OC)ccc21 as the molecule, how does the solubility [1] read?
The solubility was 6.68 µg/mL (≈ 17.6 µM).

And the IC50 (HepG2)?
The IC50 was 9 nM.

What about the inhibition at 0.1 µM (A549 [2]) of the same molecule?
Its inhibition at 0.1 µM is 78.3%.

What about the Activity (K562 [3]) of the same molecule?
Its Activity is “Active”.

What about the Activity (K562 [4]) of the same molecule?
The Activity was 22.58%.

What about the Activity (K562 [5]) of the same molecule?
The Activity was 12.33%.

What about the Activity (HUVEC) of the same molecule?
The Activity was “Active”.

What about the half-life at 100 µM [6] of the same molecule?
The half-life at 100 µM was 10.7 min.

And the Activity (H22 [7])?
The Activity was “Dose-Dependent Effect”.

What about the remaining at 3 h, 1 µM [8] of the same molecule?
Its remaining at 3 h, 1 µM is 105%.

And the inhibition at 0.01 µM (A549 [9])?
Its inhibition at 0.01 µM is 73.6%.

And the Activity (K562 [10])?
Its Activity is “Active”.

And the Activity (K562 [11])?
Its Activity is 47.52%.

What about the Activity (K562 [12]) of the same molecule?
Its Activity is 28.04%.

What about the Activity (H22 [13]) of the same molecule?
The Activity was “Active”.

What about the IC50 (A549 [14]) of the same molecule?
The IC50 was 8 nM.

What about the Activity (K562 [15]) of the same molecule?
Its Activity is “Active”.

What about the “Ratio IC50” value [16] of the same molecule?
The value was 5.38.

What about the inhibition at 1 µM (A549 [17]) of the same molecule?
Its inhibition at 1 µM is 79%.

And the Activity (K562 [18])?
Its Activity is 11.44%.

What about the Activity (K562 [19]) of the same molecule?
Its Activity is “Active”.

What about the Activity (K562 [20]) of the same molecule?
Its Activity is 45.82%.

And the Activity (H22 [21])?
Its Activity is “Active”.

And the Activity [22]?
The Activity was “Non-Toxic”.

And the inhibition (Tubulin (Homo sapiens) [23])?
The inhibition was “Active”.

What about the IC50 (K562 [24]) of the same molecule?
Its IC50 is 3 nM.

And the Activity (K562 [25])?
Its Activity is 59.63%.

What about the Activity (K562 [26]) of the same molecule?
Its Activity is 10.62%.

What about the Activity [27] of the same molecule?
The Activity was “Non-Toxic”.

What about the inhibition (MDA-MB-231 [28]) of the same molecule?
The inhibition was “Dose-Dependent Effect”.

And the Activity [29]?
Its Activity is “Non-Toxic”.

And the inhibition (Tubulin (Homo sapiens) [30])?
The inhibition was 75.9%.

And the Activity (K562 [31])?
The Activity was “Active”.

And the IC50 at 72 h [32]?
The IC50 at 72 h was 62 nM.

What about the half-life at 1 µM [33] of the same molecule?
Its half-life at 1 µM is over 180 min.

What about the Activity (H22 [34]) of the same molecule?
Its Activity is “Dose-Dependent Effect”.

What about the inhibition (Tubulin (Homo sapiens) [35]) of the same molecule?
Its inhibition is 63.9%.

And the Activity [36]?
Its Activity is “Non-Toxic”.

What about the inhibition (MDA-MB-231 [37]) of the same molecule?
Its inhibition is “Active”.
